This is an account of results in patent US10214519B2, “Phosphatidylinositol 3-kinase inhibitors” (Gilead Sciences, Inc., priority 2016, dated 2019).

What is called IC50 is the concentration at which inhibition is half-maximal. Low values mean inhibition by little substance, high ones a need for much substance.

The target in the test is PI3Kβ (Homo sapiens (Human), UniProt P42338). The test can be described thus: PI3K isoform TR-FRET enzymatic assay (PI3Kβ). Format: biochemical. As to conditions: 2× Km ATP, 30 minutes at 25° C. In short, it runs like this: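 Heterodimeric recombinant PI3Kβ was incubated with compound 30 minutes at 25° C. Product was detected by TR-FRET competition with 10 nM labeled PIP3 for 35 nM Eu-GRP-1 PH domain after EDTA stop. Data were normalized to 1 μM wortmannin and DMSO, and IC50 was taken from a four-parameter fit.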
PI3Kβ, sequence (P42338 whole entry, the tested form may be a part, canonical isoform): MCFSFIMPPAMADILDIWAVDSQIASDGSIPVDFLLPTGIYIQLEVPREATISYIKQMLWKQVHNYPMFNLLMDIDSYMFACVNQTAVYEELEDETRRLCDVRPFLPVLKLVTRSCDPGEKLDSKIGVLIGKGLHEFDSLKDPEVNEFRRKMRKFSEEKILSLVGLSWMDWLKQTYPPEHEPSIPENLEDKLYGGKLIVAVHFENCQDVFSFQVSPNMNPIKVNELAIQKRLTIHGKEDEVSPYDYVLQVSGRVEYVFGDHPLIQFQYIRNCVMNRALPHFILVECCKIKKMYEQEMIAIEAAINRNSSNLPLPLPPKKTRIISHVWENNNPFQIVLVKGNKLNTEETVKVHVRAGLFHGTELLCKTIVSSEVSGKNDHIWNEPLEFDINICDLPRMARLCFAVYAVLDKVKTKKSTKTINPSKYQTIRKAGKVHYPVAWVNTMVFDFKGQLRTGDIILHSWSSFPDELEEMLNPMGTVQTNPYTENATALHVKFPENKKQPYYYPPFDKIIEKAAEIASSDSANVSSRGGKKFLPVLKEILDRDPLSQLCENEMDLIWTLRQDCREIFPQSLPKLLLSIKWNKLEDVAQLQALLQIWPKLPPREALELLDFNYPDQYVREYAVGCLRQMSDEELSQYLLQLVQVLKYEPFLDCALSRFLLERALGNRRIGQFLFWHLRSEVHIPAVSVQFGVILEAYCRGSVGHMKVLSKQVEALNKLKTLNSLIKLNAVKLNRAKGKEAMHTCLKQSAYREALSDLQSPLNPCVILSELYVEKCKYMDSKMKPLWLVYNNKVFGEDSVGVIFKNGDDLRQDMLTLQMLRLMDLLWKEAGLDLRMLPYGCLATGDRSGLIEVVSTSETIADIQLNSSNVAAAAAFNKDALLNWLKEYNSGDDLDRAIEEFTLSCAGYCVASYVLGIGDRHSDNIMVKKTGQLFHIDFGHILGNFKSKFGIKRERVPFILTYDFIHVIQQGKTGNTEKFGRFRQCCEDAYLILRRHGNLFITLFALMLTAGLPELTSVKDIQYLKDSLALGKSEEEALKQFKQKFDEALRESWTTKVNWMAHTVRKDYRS
PI3Kβ, sequence (P27986 whole entry partner, the tested form may be a part, canonical isoform): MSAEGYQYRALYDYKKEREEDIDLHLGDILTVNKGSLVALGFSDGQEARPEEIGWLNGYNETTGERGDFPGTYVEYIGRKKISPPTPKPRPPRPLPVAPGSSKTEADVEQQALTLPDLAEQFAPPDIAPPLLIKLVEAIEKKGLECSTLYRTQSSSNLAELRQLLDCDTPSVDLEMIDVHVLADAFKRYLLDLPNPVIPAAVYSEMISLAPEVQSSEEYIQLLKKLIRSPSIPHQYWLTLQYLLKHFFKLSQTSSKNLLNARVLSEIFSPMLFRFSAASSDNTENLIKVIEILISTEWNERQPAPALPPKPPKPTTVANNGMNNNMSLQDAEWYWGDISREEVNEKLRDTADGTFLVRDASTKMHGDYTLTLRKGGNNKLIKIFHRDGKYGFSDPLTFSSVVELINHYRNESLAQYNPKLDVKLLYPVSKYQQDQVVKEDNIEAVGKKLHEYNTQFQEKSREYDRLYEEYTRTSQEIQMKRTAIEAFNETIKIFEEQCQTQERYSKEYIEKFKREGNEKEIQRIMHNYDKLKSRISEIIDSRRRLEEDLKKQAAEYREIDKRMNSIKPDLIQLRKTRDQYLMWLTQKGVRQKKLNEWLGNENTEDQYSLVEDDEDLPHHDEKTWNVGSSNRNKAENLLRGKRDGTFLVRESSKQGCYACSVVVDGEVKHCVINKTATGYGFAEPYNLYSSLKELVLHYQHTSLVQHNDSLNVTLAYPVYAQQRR
On the technique in general: Time-resolved FRET reads energy transfer from a long-lived donor to a nearby acceptor.

As for `Cc1nc2c(-c3cccc(C(N)=O)c3)cc(N3CCOCC3)cc2n1-c1ccnc2c(-c3cccc(C(N)=O)c3)cccc12` [Example 322, 3-[4-[4-(3-carbamoylphenyl)-2-methyl-6-morpholin-4-ylbenzimidazol-1-yl]quinolin-8-yl]benzamide], the IC50 is over 10000 nM.

`Cc1nc2c(-c3cnc(Cl)[nH]3)cc(N3CCOCC3)cc2n1-c1ccnc2ccccc12` [Example 306, 4-[7-(2-chloro-1H-imidazol-5-yl)-2-methyl-3-quinolin-4-ylbenzimidazol-5-yl]morpholine] gave an IC50 of 370 nM.

As for `Cc1nc2c(-c3cnco3)cc(N3CCOCC3)cc2n1-c1ccnc2c(Cl)cccc12` [Example 277, 4-[3-(8-chloroquinolin-4-yl)-2-methyl-7-(1,3-oxazol-5-yl)benzimidazol-5-yl]morpholine], half-maximal inhibition (IC50) required 620 nM.

`Fc1ccc(F)c2c(-n3c(C4CC4)nc4c(-c5ncco5)cc(N5CCOCC5)cc43)ccnc12` [Example 231, 4-[2-cyclopropyl-3-(5,8-difluoroquinolin-4-yl)-7-(1,3-oxazol-2-yl)benzimidazol-5-yl]morpholine] showed an IC50 of 16 nM.

Compound `CCc1nnc(-c2cc(N3CCOCC3)cc3c2nc(C)n3-c2ccnc3c(Cl)cccc23)[nH]1` [Example 137, 4-[3-(8-chloroquinolin-4-yl)-7-(5-ethyl-4H-1,2,4-triazol-3-yl)-2-methylbenzimidazol-5-yl]morpholine] yielded an IC50 of 17 nM.

In turn, `Fc1ccc2c(-n3c(C4CC4)nc4c(-c5nnc(Cl)[nH]5)cc(N5CCOCC5)cc43)ccnc2c1Cl` [Example 173, 4-(4-(5-chloro-4H-1,2,4-triazol-3-yl)-1-(8-chloro-7-fluoroquinolin-4-yl)-2-cyclopropyl-1H-benzo[d]imidazol-6-yl)morpholine] gave an IC50 of 140 nM.

The compound `Cc1nc2c(-c3nnc[nH]3)cc(N3CCOCC3)cc2n1-c1cc(-c2ccccc2)nc2ccccc12` [Example 59, 4-[2-methyl-3-(2-phenylquinolin-4-yl)-7-(4H-1,2,4-triazol-3-yl)benzimidazol-5-yl]morpholine] had an IC50 of 130 nM.

As for `Cc1cc(-n2c(C)nc3c(-c4cnc[nH]4)cc(N4CCOCC4)cc32)c2cccc(F)c2n1` [Example 210, 4-[3-(8-fluoro-2-methylquinolin-4-yl)-7-(1H-imidazol-5-yl)-2-methylbenzimidazol-5-yl]morpholine], half-maximal inhibition (IC50) was put at 27 nM.

`Cc1nc2c(-c3cnn(C)c3)cc(N3CCOCC3)cc2n1-c1ccnc2c(Cl)cccc12` [Example 313, 4-(1-(8-chloroquinolin-4-yl)-2-methyl-4-(1-methyl-1H-pyrazol-4-yl)-1H-benzo[d]imidazol-6-yl)morpholine] displayed an IC50 of 9800 nM.

The compound `Cc1csc(-c2cc(N3CCOCC3)cc3c2nc(C2CC2)n3-c2ccnc3c(Cl)ccc(F)c23)n1` [Example 243, 4-[3-(8-chloro-5-fluoroquinolin-4-yl)-2-cyclopropyl-7-(4-methyl-1,3-thiazol-2-yl)benzimidazol-5-yl]morpholine] yielded an IC50 of 26 nM.

In the case of `CCCc1nc2c(-c3nnc[nH]3)cc(N3CCOCC3)cc2n1-c1ccnc2c(F)cccc12` [Example 141, 4-[3-(8-fluoroquinolin-4-yl)-2-propyl-7-(4H-1,2,4-triazol-3-yl)benzimidazol-5-yl]morpholine], the IC50 was found to be 10 nM.

Consider `Cc1nc2c(-c3nnc[nH]3)cc(N3CCOCC3)cc2n1-c1ccnc2c(Cl)ccc(F)c12` [Example 87, 4-[3-(8-chloro-5-fluoroquinolin-4-yl)-2-methyl-7-(4H-1,2,4-triazol-3-yl)benzimidazol-5-yl]morpholine], for which the IC50 stood at 14 nM.

As to `Fc1cccc2c(-n3c(C4CC4)nc4c(-c5cnc(Cl)[nH]5)cc(N5CCOCC5)cc43)ccnc12` [Example 287, 4-[7-(2-chloro-1H-imidazol-5-yl)-2-cyclopropyl-3-(8-fluoroquinolin-4-yl)benzimidazol-5-yl]morpholine], the IC50 stood at 56 nM.

In turn, `Cc1nc2c(-c3cnc(Cl)[nH]3)cc(N3CCOCC3)cc2n1-c1ccnc2c(Cl)cccc12` [Example 278, 4-[7-(2-chloro-1H-imidazol-5-yl)-3-(8-chloroquinolin-4-yl)-2-methylbenzimidazol-5-yl]morpholine] registered an IC50 of 4 nM.

`Cc1nc2c(-c3cnc(Cl)[nH]3)cc(N3CCOCC3)cc2n1-c1ccnc2c(F)ccc(F)c12` (atropisomer, axis not shown) [Compound 373, 4-(4-(2-chloro-1H-imidazol-5-yl)-1-(5,8-difluoroquinolin-4-yl)-2-methyl-1H-benzo[d]imidazol-6-yl)morpholine] yielded an IC50 of 1000 nM.

Take `CCCc1nc2c(-c3nnc[nH]3)cc(N3CCOCC3)cc2n1-c1ccnc2cc(F)ccc12` [Example 7, 4-(1-(7-fluoroquinolin-4-yl)-2-propyl-4-(4H-1,2,4-triazol-3-yl)-1H-benzo[d]imidazol-6-yl)morpholine]: the midpoint of inhibition, the IC50, lay at 31 nM.

Take `Cc1nc2c(F)cccc2c(-n2c(C)nc3c(-c4nnc[nH]4)cc(N4CCOCC4)cc32)c1C` [Example 61, 4-[3-(8-fluoro-2,3-dimethylquinolin-4-yl)-2-methyl-7-(4H-1,2,4-triazol-3-yl)benzimidazol-5-yl]morpholine]: the IC50 was determined as 27 nM.

As for `Fc1ccc(F)c2c(-n3c(CC4CC4)nc4c(-c5cnc(Cl)[nH]5)cc(N5CCOCC5)cc43)ccnc12` [Example 302, 4-[7-(2-chloro-1H-imidazol-5-yl)-2-(cyclopropylmethyl)-3-(5,8-difluoroquinolin-4-yl)benzimidazol-5-yl]morpholine], the IC50 was 24 nM.

Take `Fc1ccc(F)c2c(-n3c(C4CC4)nc4c(-c5cnc(Cl)[nH]5)cc(N5CCOCC5)cc43)ccnc12` (atropisomer, axis not shown) [Compound 343, 4-[7-(2-chloro-1H-imidazol-5-yl)-2-cyclopropyl-3-(5,8-difluoroquinolin-4-yl)benzimidazol-5-yl]morpholine]: the IC50 came to 5 nM.

Compound `Cc1nc2c(-c3cccnc3)cc(N3CCOCC3)cc2n1-c1ccnc2c(-c3cccnc3)cccc12` [Example 318, 4-[2-methyl-7-pyridin-3-yl-3-(8-pyridin-3-ylquinolin-4-yl)benzimidazol-5-yl]morpholine] had an IC50 of 5200 nM.

Regarding `CCCc1nc2c(-c3cnc(Cl)[nH]3)cc(N3CCOCC3)cc2n1-c1ccnc2c(Cl)cc(F)cc12` [Example 303, 4-[3-(8-chloro-6-fluoroquinolin-4-yl)-7-(2-chloro-1H-imidazol-5-yl)-2-propylbenzimidazol-5-yl]morpholine], the IC50 amounted to 21 nM.

On to `Cc1cc(-n2c(C)nc3c(-c4nnc[nH]4)cc(N4CCOCC4)cc32)c2ccc(F)cc2n1` [Example 63, 4-[3-(7-fluoro-2-methylquinolin-4-yl)-2-methyl-7-(4H-1,2,4-triazol-3-yl)benzimidazol-5-yl]morpholine], for which the IC50 worked out at 28 nM.

As for `CCc1nc2c(-c3cnc(Cl)[nH]3)cc(N3CCOCC3)cc2n1-c1cc(C)nc2c(F)cccc12` [Example 283, 4-[7-(2-chloro-1H-imidazol-5-yl)-2-ethyl-3-(8-fluoro-2-methylquinolin-4-yl)benzimidazol-5-yl]morpholine], half-maximal inhibition (IC50) required 71 nM.

Compound `Cc1nc2c(-c3n[nH]c(=S)o3)cc(N3CCOCC3)cc2n1-c1ccnc2cc(F)ccc12` [Example 164, 5-(1-(7-fluoroquinolin-4-yl)-2-methyl-6-morpholino-1H-benzo[d]imidazol-4-yl)-1,3,4-oxadiazole-2(3H)-thione] registered an IC50 of 130 nM.

In turn, `Cc1cccc2c(-n3c(C)nc4c(-c5nnc[nH]5)cc(N5CCOCC5)cc43)ccnc12` [Example 109, 4-[2-methyl-3-(8-methylquinolin-4-yl)-7-(4H-1,2,4-triazol-3-yl)benzimidazol-5-yl]morpholine] yielded an IC50 of 13 nM.

In turn, `Cc1nc2c(-c3ccncc3)cc(N3CCOCC3)cc2n1-c1ccnc2c(-c3ccncc3)cccc12` [Example 320, 4-[2-methyl-7-pyridin-4-yl-3-(8-pyridin-4-ylquinolin-4-yl)benzimidazol-5-yl]morpholine] came in with an IC50 of over 10000 nM.

`Cc1nc2c(-c3nnc[nH]3)cc(N3CCOCC3)cc2n1-c1ccnc2cccc(Cl)c12` [Example 84, 4-[3-(5-chloroquinolin-4-yl)-2-methyl-7-(4H-1,2,4-triazol-3-yl)benzimidazol-5-yl]morpholine] came in with an IC50 of 17 nM.

Consider `Clc1cccc2c(-n3c(-c4ccncc4)nc4c(-c5nnc[nH]5)cc(N5CCOCC5)cc43)ccnc12` [Example 15, 4-(1-(8-chloroquinolin-4-yl)-2-(pyridin-4-yl)-4-(4H-1,2,4-triazol-3-yl)-1H-benzo[d]imidazol-6-yl)morpholine], for which inhibition was half-maximal at 49 nM (IC50).

The compound `Cc1nc2c(-c3nnc(Cl)[nH]3)cc(N3CCOCC3)cc2n1-c1ccnc2c(Cl)cccc12` [Example 178, 4-[3-(8-chloroquinolin-4-yl)-7-(5-chloro-4H-1,2,4-triazol-3-yl)-2-methylbenzimidazol-5-yl]morpholine] displayed an IC50 of 12 nM.

With `Fc1ccc(F)c2c(-n3cnc4c(-c5cnc(Cl)[nH]5)cc(N5CCOCC5)cc43)ccnc12` [Example 308, 4-[7-(2-chloro-1H-imidazol-5-yl)-3-(5,8-difluoroquinolin-4-yl)benzimidazol-5-yl]morpholine], 6 nM corresponded to half-maximal inhibition (IC50).

For `Fc1ccc(F)c2c(-n3cnc4c(-c5cnc[nH]5)cc(N5CCOCC5)cc43)ccnc12` [Example 336, 4-[3-(5,8-difluoroquinolin-4-yl)-7-(1H-imidazol-5-yl)benzimidazol-5-yl]morpholine], the midpoint of inhibition, the IC50, lay at 5 nM.

`CCc1nc2c(-c3cnc(C)[nH]3)cc(N3CCOCC3)cc2n1-c1ccnc2c(F)ccc(F)c12` [Example 206, 4-[3-(5,8-difluoroquinolin-4-yl)-2-ethyl-7-(2-methyl-1H-imidazol-5-yl)benzimidazol-5-yl]morpholine] registered an IC50 of 40 nM.

`Cc1nc2c(-c3cncnc3)cc(N3CCOCC3)cc2n1-c1ccnc2c(Cl)cccc12` [Example 315, 4-(1-(8-chloroquinolin-4-yl)-2-methyl-4-(pyrimidin-5-yl)-1H-benzo[d]imidazol-6-yl)morpholine] registered an IC50 of 490 nM.
